Tests used:
[1] = tested on: luciferase with nonsense mutation in a specific codon context (UGAA, UGAC, UAAA or UAAC); assay: Western blot of luciferase protein produced by suppression of the nonsense mutation; format: cell-based, Human embryonic kidney cells (293 cells); settings: 293 cells treated with compound, continuation lines list further codon contexts
Excerpt: Nonsense suppression activity in an assay as described above is shown in the Table 3 below, for a construct with a UGA nonsense mutation at position 190, followed by a cytosine nucleotide in-frame, (UGAC); for a construct with UAG nonsense mutation at position 190, followed by an adenine nucleotide in-frame, (UAGA); for a construct with […] nonsense mutation at position 190, followed by an adenine nucleotide in-frame, (UAAA); and a construct with a UAA nonsense mutation at position 190, followed by an cytosine nucleotide in-frame, (UAAC). Also included in Table 3 is a column (“western blot”) indicating whether treatment of cells with the indicated compound suppresses the nonsense mutation in a specific codon context (UGAA, UGAC, UAAA or UAAC) in luciferase and results in production of luciferase protein as determined by a positive signal on a western blot. A positive result in the western blot assay is indicated by a “+” and the nonsense codon and context of the codon that is suppressed.
Another assay of the present invention can evaluate compounds that promote nonsense mutation suppression. The luciferase constructs described above in FIG. 1 are engineered to harbor two epitope tags in the N-terminus of the luciferase protein. Based on luciferase protein production, these constructs qualitatively assess the level of translation-readthrough. The presence of the full-length luciferase protein produced by suppression of the premature termination codon is measured by immunoprecipitation of the suppressed luciferase protein (using an antibody against a His tag) followed by western blotting using an antibody against the second epitope (the Xpress™ epitope; Invitrogen®; Carlsbad, Calif.). These constructs are depicted in FIG. 2.
Cells that harbor the constructs of FIG. 2 show increased full-length protein production when treated with a compound of the present invention. After treatment for 20 hours, cells containing the constructs of FIG. 2 are collected and an antibody recognizing the His epitope is used to immunoprecipitate the luciferase protein. Following immunoprecipitation, western blotting is performed using the antibody to the Xpress™ epitope (Invitrogen®; Carlsbad, Calif.) to detect the truncated luciferase (produced when no nonsense suppression occurs) and to detect the full-length protein (produced by suppression of the nonsense codon). Treatment of cells with a test compound produces full-length protein and not a readthrough protein (See e.g., FIG. 3). The readthrough protein is produced if suppression of the normal termination codon occurs. Compounds of the present invention suppress the premature, i.e. nonsense mutation, but not the normal termination codon in the luciferase mRNA.

| Structure (SMILES) | western blot: production of luciferase protein; + and the codon context that is suppressed [1] | melting point [°C] | western blot: production of luciferase protein; + and the codon context that is suppressed ([1]; UAAA codon context construct) | western blot: production of luciferase protein; + and the codon context that is suppressed ([1]; UGAA codon context construct) | western blot: production of luciferase protein; + and the codon context that is suppressed ([1]; UGAC codon context construct) | western blot: production of luciferase protein; + and the codon context that is suppressed ([1]; UAAC codon context construct) |
| --- | --- | --- | --- | --- | --- | --- |
| Cc1ccc(-n2cc(-c3cccc(C(=O)O)c3)cn2)cc1C [Compound 237, 3-[1-(3,4-Dimethyl-phenyl)-1H-pyrazol-4-yl]-benzoic acid] | +; UGAC | 196 to 197 |  |  |  |  |
| O=C(O)c1ccc(-c2ccn(-c3ccc(C(F)(F)F)cc3)c2)cc1 [Compound 105, 4-[1-(4-Trifluoromethyl-phenyl)-1H-pyrrol-3-yl]-benzoic acid] |  | 315 to 317 | UAAA | +; UGAA; | UGAC; |  |
| O=C(O)c1cccc(-c2ccn(-c3ccc(OC(F)(F)F)cc3)n2)c1 [Compound 66, 3-[1-(4-Trifluoromethoxy-phenyl)-1H-pyrazol-3-yl]-benzoic acid] |  | 171 to 174 |  |  | +UGAC; | UAAC |
| O=C(O)c1cccc(-n2ccc(-c3ccc(F)cc3)n2)c1 [Compound 92, 3-[3-(4-Fluoro-phenyl)-pyrazol-1-yl]-benzoic acid] |  | 237 to 240 |  |  |  |  |
| O=C(O)c1cccc(-c2ccn(-c3ccc(OCc4ccccc4)cc3)n2)c1 [Compound 176, 3-[1-(4-Benzyloxy-phenyl)-1H-pyrazol-3-yl]-benzoic acid] |  | 210 to 212 |  |  |  |  |
